Data published in patent US20170008921A1, “C-3 NOVEL TRITERPENONE WITH C-28 REVERSE AMIDE DERIVATIVES AS HIV INHIBITORS” (HETERO RESEARCH FOUNDATION, priority 2015, published 2017).

Legend:
[1] = Cyto-toxicity (MTT assay); assay type: cell-based
[2] = Single dose oral pharmacokinetic study; assay type: in vivo; settings: mouse, Mice oral PK @30 mg/kg, plasma, vehicle 10% Solutol+20% PEG; for AUC(0-t): read-out: AUC0-t; for Cmax: read-out: Cmax
Procedure, shortened: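 Rats or mice dosed orally at 30 mg/kg in 10% Solutol+20% PEG. Acetonitrile precipitation, then LC-MS/MS quantification for PK parameters.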

Compound | viability at 4 days, 0.01 µM [1] [%] | viability at 4 days, 0.1 µM [1] [%] | viability at 4 days, 1 µM [1] [%] | AUC(0-t) [2] [µg·h/mL] | Cmax [2] [ng/mL] | viability at 4 days, 0.001 µM [1] [%] | viability at 4 days, 0.003 µM [1] [%]
CC(C)C1=C2[C@H]3CC[C@@H]4[C@@]5(C)CC[C@H](OC(=O)[C@H]6C[C@@H](C(=O)O)C6(C)C)C(C)(C)[C@@H]5CC[C@@]4(C)[C@]3(C)CC[C@@]2(NC(=O)C(C)(C)NC(=O)c2ccoc2)CC1=O [Example 24, (1R,3S)-3-((((3aR,5aR,5bR,7aR,9S,11aR,11bR,13aS)-3a-(2-(furan-3-carboxamido)-2-methylpropanamido)-1-isopropyl-5a,5b,8,8,11a-pentamethyl-2-oxo-3,3a,4,5,5a,5b,6,7,7a,8,9,10,11,11a,11b,12,13,13a-octadecahydro-2H-cyclopenta[a]chrysen-9-yl)oxy)carbonyl)-2,2-dimethylcyclobutane-1-carboxylic acid] | 69 | 21 | 6 | 428 | 29600 | – | –
CC(C)C1=C2[C@H]3CC[C@@H]4[C@@]5(C)CC[C@H](OC(=O)[C@H]6C[C@@H](C(=O)O)C6(C)C)C(C)(C)[C@@H]5CC[C@@]4(C)[C@]3(C)CC[C@@]2(NC(=O)C(C)(C)NC(=O)c2ccc(C(F)(F)F)cc2)CC1=O [Example 25, (1R,3S)-3-((((3aR,5aR,5bR,7aR,9S,11aR,11bR,13aS)-1-isopropyl-5a,5b,8,8,11a-pentamethyl-3a-(2-methyl-2-(4-(trifluoromethyl)benzamido)propan amido)-2-oxo-3,3a,4,5,5a,5b,6,7,7a,8,9,10,11,11a,11b,12,13,13a-octadecahydro-2H-cyclopenta[a]chrysen-9-yl)oxy)carbonyl)-2,2-dimethylcyclobutane-1-carboxylic acid] | 31 | 6 | 2 | 336 | 24000 | – | –
CC(C)C1=C2[C@H]3CC[C@@H]4[C@@]5(C)CC[C@H](OC(=O)[C@H]6C[C@@H](C(=O)O)C6(C)C)C(C)(C)[C@@H]5CC[C@@]4(C)[C@]3(C)CC[C@@]2(NC(=O)C(C)(C)NC(=O)c2ccc3ccccc3n2)CC1=O [Example 28, (1R,3S)-3-((((3aR,5aR,5bR,7aR,9S,11aR,11bR,13aS)-1-isopropyl-5a,5b,8,8,11a-pentamethyl-3a-(2-methyl-2-(quinoline-2-carboxamido)propanamido)-2-oxo-3,3a,4,5,5a,5b,6,7,7a,8,9,10,11,11a,11b,12,13,13a-octadecahydro-2H-cyclopenta[a]chrysen-9-yl)oxy)carbonyl)-2,2-dimethylcyclobutane-1-carboxylic acid] | 21 | 10 | 6 | 345 | 16200 | – | –
Cc1occc1C(=O)NC(C)(C)C(=O)N[C@@]12CC[C@]3(C)[C@H](CC[C@@H]4[C@@]5(C)CC[C@H](OC(=O)[C@H]6C[C@@H](C(=O)O)C6(C)C)C(C)(C)[C@@H]5CC[C@]43C)C1=C(C(C)C)C(=O)C2 [Example 30, (1R,3S)-3-((((3aR,5aR,5bR,7aR,9S,11aR,11bR,13aS)-1-isopropyl-5a,5b,8,8,11a-pentamethyl-3a-(2-methyl-2-(2-methylfuran-3-carboxamido)propan amido)-2-oxo-3,3a,4,5,5a,5b,6,7,7a,8,9,10,11,11a,11b,12,13,13a-octadecahydro-2H-cyclopenta[a]chrysen-9-yl)oxy)carbonyl)-2,2-dimethylcyclobutane-1-carboxylic acid] | 30 | 3 | 2 | 477 | 23000 | – | –
CC(C)C1=C2[C@H]3CC[C@@H]4[C@@]5(C)CC[C@H](OC(=O)[C@H]6C[C@@H](C(=O)O)C6(C)C)C(C)(C)[C@@H]5CC[C@@]4(C)[C@]3(C)CC[C@@]2(NC(=O)C(C)(C)NC(=O)c2cccnc2N2CCOCC2)CC1=O [Example 31, (1R,3S)-3-((((3aR,5aR,5bR,7aR,9S,11aR,11bR,13aS)-1-isopropyl-5a,5b,8,8,11a-pentamethyl-3a-(2-methyl-2-(2-morpholinonicotinamido)propan amido)-2-oxo-3,3a,4,5,5a,5b,6,7,7a,8,9,10,11,11a,11b,12,13,13a-octadecahydro-2H-cyclopenta[a]chrysen-9-yl)oxy)carbonyl)-2,2-dimethylcyclobutane-1-carboxylic acid] | 54 | – | – | 255 | 18700 | 81 | 86
CC(C)C1=C2[C@H]3CC[C@@H]4[C@@]5(C)CC[C@H](OC(=O)[C@H]6C[C@@H](C(=O)O)C6(C)C)C(C)(C)[C@@H]5CC[C@@]4(C)[C@]3(C)CC[C@@]2(NC(=O)C2(NC(=O)c3ccc(Cl)cc3)CC2)CC1=O [Example 37, (1R,3S)-3-((((3aR,5aR,5bR,7aR,9S,11aR,11bR,13aS)-3a-(1-(4-chlorobenzamido)cyclopropane-1-carboxamido)-1-isopropyl-5a,5b,8,8,11a-pentamethyl-2-oxo-3,3a,4,5,5a,5b,6,7,7a,8,9,10,11,11a,11b,12,13,13a-octadecahydro-2H-cyclopenta[a]chrysen-9-yl)oxy)carbonyl)-2,2-dimethylcyclobutane-1-carboxylic acid] | 26 | 4 | 1 | 874 | 38800 | – | –
Cc1ccc(C(=O)NC2(C(=O)N[C@@]34CC[C@]5(C)[C@H](CC[C@@H]6[C@@]7(C)CC[C@H](OC(=O)[C@H]8C[C@@H](C(=O)O)C8(C)C)C(C)(C)[C@@H]7CC[C@]65C)C3=C(C(C)C)C(=O)C4)CC2)cn1 [Example 38, (1R,3S)-3-((((3aR,5aR,5bR,7aR,9S,11aR,11bR,13aS)-1-isopropyl-5a,5b,8,8,11a-pentamethyl-3a-(1-(6-methylnicotinamido)cyclopropane-1-carbox amido)-2-oxo-3,3a,4,5,5a,5b,6,7,7a,8,9,10,11,11a,11b,12,13,13a-octadecahydro-2H-cyclopenta[a]chrysen-9-yl)oxy)carbonyl)-2,2-dimethylcyclobutane-1-carboxylic acid] | 20 | 9 | 2 | 114 | 10100 | – | –
Cc1ccc(C(=O)NC2(C(=O)N[C@@]34CC[C@]5(C)[C@H](CC[C@@H]6[C@@]7(C)CC[C@H](OC(=O)[C@H]8C[C@@H](C(=O)O)C8(C)C)C(C)(C)[C@@H]7CC[C@]65C)C3=C(C(C)C)C(=O)C4)CC2)cc1 [Example 40, (1R,3S)-3-((((3aR,5aR,5bR,7aR,9S,11aR,11bR,13aS)-1-isopropyl-5a,5b,8,8,11a-pentamethyl-3a-(1-(4-methylbenzamido)cyclopropane-1-carboxamido)-2-oxo-3,3a,4,5,5a,5b,6,7,7a,8,9,10,11,11a,11b,12,13,13a-octadecahydro-2H-cyclopenta[a]chrysen-9-yl)oxy)carbonyl)-2,2-dimethylcyclobutane-1-carboxylic acid] | 26 | 2 | 1 | 343 | 20300 | – | –
CC(C)C1=C2[C@H]3CC[C@@H]4[C@@]5(C)CC[C@H](OC(=O)[C@H]6C[C@@H](C(=O)O)C6(C)C)C(C)(C)[C@@H]5CC[C@@]4(C)[C@]3(C)CC[C@@]2(NC(=O)C2(NC(=O)c3ccc(Cl)cc3)CCC2)CC1=O [Example 42, (1R,3S)-3-((((3aR,5aR,5bR,7aR,9S,11aR,11bR,13aS)-3a-(1-(4-chlorobenzamido)cyclobutane-1-carboxamido)-1-isopropyl-5a,5b,8,8,11a-pentamethyl-2-oxo-3,3a,4,5,5a,5b,6,7,7a,8,9,10,11,11a,11b,12,13,13a-octadecahydro-2H-cyclopenta[a]chrysen-9-yl)oxy)carbonyl)-2,2-dimethylcyclobutane-1-carboxylic acid] | 27 | 5 | 4 | 481 | 22900 | – | –
Cc1ccc(C(=O)NC2(C(=O)N[C@@]34CC[C@]5(C)[C@H](CC[C@@H]6[C@@]7(C)CC[C@H](OC(=O)[C@H]8C[C@@H](C(=O)O)C8(C)C)C(C)(C)[C@@H]7CC[C@]65C)C3=C(C(C)C)C(=O)C4)CCC2)cn1 [Example 43, (1R,3S)-3-((((3aR,5aR,5bR,7aR,9S,11aR,11bR,13aS)-1-isopropyl-5a,5b,8,8,11a-pentamethyl-3a-(1-(6-methylnicotinamido)cyclobutane-1-carboxamido)-2-oxo-3,3a,4,5,5a,5b,6,7,7a,8,9,10,11,11a,11b,12,13,13a-octadecahydro-2H-cyclopenta[a]chrysen-9-yl)oxy)carbonyl)-2,2-dimethylcyclobutane-1-carboxylic acid] | 76 | 26 | 3 | 320 | 31300 | – | –
CC(C)C1=C2[C@H]3CC[C@@H]4[C@@]5(C)CC[C@H](OC(=O)[C@H]6C[C@@H](C(=O)O)C6(C)C)C(C)(C)[C@@H]5CC[C@@]4(C)[C@]3(C)CC[C@@]2(NC(=O)C2(NC(=O)c3ncccn3)CCC2)CC1=O [Example 44, (1R,3S)-3-((((3aR,5aR,5bR,7aR,9S,11aR,11bR,13aS)-1-isopropyl-5a,5b,8,8,11a-pentamethyl-2-oxo-3a-(1-(pyrimidine-2-carboxamido)cyclobutane-1-carboxamido)-3,3a,4,5,5a,5b,6,7,7a,8,9,10,11,11a,11b,12,13,13a-octadecahydro-2H-cyclopenta[a]chrysen-9-yl)oxy)carbonyl)-2,2-dimethylcyclobutane-1-carboxylic acid] | 58 | – | – | 154 | 19800 | 84 | 80
